Data published in article PMC10861852, “Loss of activation by GABA in vertebrate delta ionotropic glutamate receptors” (Proceedings of the National Academy of Sciences of the …, 2024).

Legend:
RatGluD2^Lc^-10x = molecular target: T1, RatGluD2^Lc^-10x (Rattus norvegicus, UniProt Q63226, A654T/A686S/D753Q/K694R/N720P/N763K/P806D/Q786M/R787V/S544G/Y613F); assay: Two-electrode voltage clamp, responses to ligands in mutant-expressing oocytes; format: cell-based; settings: ligands 30 mM
T1 construct: expressed in transfected cells; host or cells: Xenopus laevis oocytes injected with mRNA
T1 sequence (Q63226 24-1007 S544G/Y613F/A654T/A686S/K694R/N720P/D753Q/N763K/Q786M/R787V/P806D): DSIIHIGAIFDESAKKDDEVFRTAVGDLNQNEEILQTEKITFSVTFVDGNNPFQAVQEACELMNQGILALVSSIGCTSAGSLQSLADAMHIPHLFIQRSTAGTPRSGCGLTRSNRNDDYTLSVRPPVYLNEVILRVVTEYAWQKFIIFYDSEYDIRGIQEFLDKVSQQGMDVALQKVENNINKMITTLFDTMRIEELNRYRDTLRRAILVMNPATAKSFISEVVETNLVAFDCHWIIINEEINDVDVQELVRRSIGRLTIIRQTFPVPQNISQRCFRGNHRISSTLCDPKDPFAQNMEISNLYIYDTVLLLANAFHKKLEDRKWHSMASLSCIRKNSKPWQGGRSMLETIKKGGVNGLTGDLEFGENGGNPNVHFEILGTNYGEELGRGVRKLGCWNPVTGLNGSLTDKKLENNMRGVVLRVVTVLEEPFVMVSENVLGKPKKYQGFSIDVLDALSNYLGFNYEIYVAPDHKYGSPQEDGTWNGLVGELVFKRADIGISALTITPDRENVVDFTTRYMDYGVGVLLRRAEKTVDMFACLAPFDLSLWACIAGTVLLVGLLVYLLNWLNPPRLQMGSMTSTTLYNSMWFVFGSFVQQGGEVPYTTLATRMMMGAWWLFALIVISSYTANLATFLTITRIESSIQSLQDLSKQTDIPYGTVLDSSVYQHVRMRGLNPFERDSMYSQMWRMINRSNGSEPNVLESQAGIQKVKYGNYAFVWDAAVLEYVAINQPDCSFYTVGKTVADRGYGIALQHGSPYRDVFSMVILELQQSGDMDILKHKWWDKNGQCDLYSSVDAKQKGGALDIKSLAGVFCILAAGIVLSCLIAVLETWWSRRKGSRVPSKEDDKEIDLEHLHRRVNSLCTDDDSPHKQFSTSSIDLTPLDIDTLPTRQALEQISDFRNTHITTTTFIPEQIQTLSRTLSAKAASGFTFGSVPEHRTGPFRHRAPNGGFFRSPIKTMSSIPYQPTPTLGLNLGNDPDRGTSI

AcaGluD = molecular target: T2, AcaGluD (Acanthaster planci, UniProt A0A8B7XXR5); assay: Two-electrode voltage clamp, ligand-gated currents in oocytes; format: cell-based
T2 sequence (A0A8B7XXR5 24-958): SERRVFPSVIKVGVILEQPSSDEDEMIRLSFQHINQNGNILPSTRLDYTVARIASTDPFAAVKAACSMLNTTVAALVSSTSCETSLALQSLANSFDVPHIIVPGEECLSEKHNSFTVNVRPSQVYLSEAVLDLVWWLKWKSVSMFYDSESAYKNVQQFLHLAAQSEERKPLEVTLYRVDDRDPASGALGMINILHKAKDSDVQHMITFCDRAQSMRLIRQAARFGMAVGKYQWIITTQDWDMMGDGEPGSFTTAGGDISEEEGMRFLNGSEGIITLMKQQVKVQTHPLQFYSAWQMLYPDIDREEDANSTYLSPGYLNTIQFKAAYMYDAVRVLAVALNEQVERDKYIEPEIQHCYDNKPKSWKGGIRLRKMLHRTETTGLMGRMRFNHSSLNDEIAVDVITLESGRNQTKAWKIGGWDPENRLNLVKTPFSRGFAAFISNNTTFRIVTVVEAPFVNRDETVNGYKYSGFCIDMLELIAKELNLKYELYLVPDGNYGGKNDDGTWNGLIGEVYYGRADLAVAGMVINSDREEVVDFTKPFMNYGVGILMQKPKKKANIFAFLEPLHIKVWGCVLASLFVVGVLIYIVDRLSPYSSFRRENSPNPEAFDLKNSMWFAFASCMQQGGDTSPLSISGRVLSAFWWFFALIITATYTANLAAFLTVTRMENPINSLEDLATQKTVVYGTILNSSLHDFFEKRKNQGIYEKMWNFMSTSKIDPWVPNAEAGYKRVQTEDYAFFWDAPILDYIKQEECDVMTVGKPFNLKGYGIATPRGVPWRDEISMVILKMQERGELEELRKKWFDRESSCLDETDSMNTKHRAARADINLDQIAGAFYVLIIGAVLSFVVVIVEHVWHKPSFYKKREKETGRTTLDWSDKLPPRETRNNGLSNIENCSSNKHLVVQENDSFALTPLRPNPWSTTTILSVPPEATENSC

DanGluD2A^Lc = assay: Two-electrode voltage clamp, inhibition of constitutive current in oocytes; format: cell-based, Danio rerio; settings: lurcher-mutant receptor
AcaGluD^Rat^NTD = assay: Two-electrode voltage clamp, ligand-gated currents in chimera-expressing oocytes; settings: relative ligand-gated current amplitude, n = 3
Excerpt: (§1) To answer this, we measured ligand-gated currents in two chimeric AcaGluD constructs in which the NTD was replaced with that of RatGluD2: one retaining the NTD-LBD linker of AcaGluD, “AcaGluD^Rat^NTD”; and the other with the NTD-LBD linker of RatGluD2, “AcaGluD^Rat^NTDlink” (Fig. 4 A and B and SI Appendix, Supporting text).

AcaGluD^Rat^NTDlink = assay: as above; settings: relative ligand-gated current amplitude, n = 3
Excerpt: as §1

K782N mutant AcaGluD = assay: Two-electrode voltage clamp, ligand-gated currents in mutant-expressing oocytes
Excerpt: (§2) As the long CTD is implicated little in channel gating and more in expression and trafficking of iGluRs ([3]), we excluded it from this analysis. […] (Two of the mutants incorporated substitutions of two adjacent residues for efficiency.)

V806R mutant AcaGluD = assay: as above
Excerpt: as §2

Q772D mutant AcaGluD = assay: as above
Excerpt: as §2

RatGluD1^AC = molecular target: T3, RatGluD1^AC (Rattus norvegicus, UniProt Q62640, A654C); assay: Two-electrode voltage clamp, inhibition of constitutive current in oocytes; format: cell-based; settings: A654C mutant receptor, n = 10
T3 construct: expressed in transfected cells; host or cells: Xenopus laevis oocytes injected with mRNA
T3 sequence (Q62640 21-1009 A654C): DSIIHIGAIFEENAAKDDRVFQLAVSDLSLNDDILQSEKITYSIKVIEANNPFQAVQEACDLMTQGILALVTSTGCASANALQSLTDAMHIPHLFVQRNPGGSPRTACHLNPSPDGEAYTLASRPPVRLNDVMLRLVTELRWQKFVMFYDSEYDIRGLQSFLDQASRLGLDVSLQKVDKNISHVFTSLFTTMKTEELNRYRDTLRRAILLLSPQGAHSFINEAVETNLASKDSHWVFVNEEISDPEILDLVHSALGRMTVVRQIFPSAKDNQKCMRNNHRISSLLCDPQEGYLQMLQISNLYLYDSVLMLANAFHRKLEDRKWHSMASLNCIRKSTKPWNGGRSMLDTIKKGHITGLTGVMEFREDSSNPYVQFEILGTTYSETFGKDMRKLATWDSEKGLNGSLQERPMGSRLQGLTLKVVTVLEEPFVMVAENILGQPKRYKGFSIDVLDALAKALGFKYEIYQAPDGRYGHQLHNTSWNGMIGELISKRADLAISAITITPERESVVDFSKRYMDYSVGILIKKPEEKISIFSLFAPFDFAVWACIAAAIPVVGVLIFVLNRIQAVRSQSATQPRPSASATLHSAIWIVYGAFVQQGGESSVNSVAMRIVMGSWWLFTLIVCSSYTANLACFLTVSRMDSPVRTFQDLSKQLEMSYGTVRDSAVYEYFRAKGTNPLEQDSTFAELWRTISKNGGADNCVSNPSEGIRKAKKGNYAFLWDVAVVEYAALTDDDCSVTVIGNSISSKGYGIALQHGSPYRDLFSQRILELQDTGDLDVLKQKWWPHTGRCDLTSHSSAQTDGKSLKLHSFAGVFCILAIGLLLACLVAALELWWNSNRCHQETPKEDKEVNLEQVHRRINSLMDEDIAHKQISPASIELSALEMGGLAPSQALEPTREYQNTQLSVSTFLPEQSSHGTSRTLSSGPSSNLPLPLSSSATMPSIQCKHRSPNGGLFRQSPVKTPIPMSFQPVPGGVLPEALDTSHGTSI

M805Q mutant AcaGluD = assay: Two-electrode voltage clamp, ligand-gated currents in mutant-expressing oocytes
Excerpt: as §2

DioGluD = assay: Two-electrode voltage clamp, ligand-gated currents in oocytes; format: cell-based, Diopisthoporus longitubus; settings: wild-type
RatGluD2^Lc^-9x = molecular target: T4, RatGluD2^Lc^-9x (Rattus norvegicus, UniProt Q63226, A654T/A686S/D753Q/K694R/N720P/N763K/P806D/Q786M/R787V/Y613F); assay: Two-electrode voltage clamp, responses to ligands in mutant-expressing oocytes; format: cell-based; settings: ligands 30 mM; receptor inactive at rest
T4 construct: expressed in transfected cells; host or cells: Xenopus laevis oocytes injected with mRNA
T4 sequence (Q63226 24-1007 Y613F/A654T/A686S/K694R/N720P/D753Q/N763K/Q786M/R787V/P806D): as the sequence (Q63226 24-1007 S544G/Y613F/A654T/A686S/K694R/N720P/D753Q/N763K/Q786M/R787V/P806D) above, with G521S counted along it

| Compound | current response to ligand (RatGluD2^Lc^-10x) | relative efficacy (AcaGluD; WT, relative ligand-gated current amplitude, n = 7) [%] | effect on constitutive currents (DanGluD2A^Lc) | relative efficacy (AcaGluD^Rat^NTD) [%] | relative efficacy (AcaGluD^Rat^NTDlink) [%] | maximum GABA-gated current amplitude (K782N mutant AcaGluD) | EC50 (AcaGluD; 0 Ca2+, n = 5) [µM] | maximum GABA-gated current amplitude (AcaGluD; WT, mutant comparison (Fig. 5B), n = 4) [μA] | maximum ligand-gated current amplitude (AcaGluD; in the presence of 1.8 mM Ca2+) [µA] | EC50 (AcaGluD; ligand-gated current, 1.8 mM Ca2+ (regular bath solution), n = 5) [µM] | maximum ligand-gated current amplitude (AcaGluD; nominally Ca2+-free solutions) [µA] | inactivation of constitutive current relative to D-serine (DanGluD2A^Lc; n = 4) [%] | maximum GABA-gated current amplitude (V806R mutant AcaGluD) | maximum GABA-gated current amplitude (Q772D mutant AcaGluD) | inactivation of constitutive current relative to D-serine (RatGluD1^AC) [%] | maximum GABA-gated current amplitude (M805Q mutant AcaGluD) | ligand-elicited currents (DioGluD) | EC50 (AcaGluD; 0 Ca2+, n = 4) [µM] | EC50 (AcaGluD; ligand-gated current, 1.8 mM Ca2+ (regular bath solution)) [µM] | current response to ligand (RatGluD2^Lc^-9x) |
| --- | --- | --- | --- | --- | --- | --- | --- | --- | --- | --- | --- | --- | --- | --- | --- | --- | --- | --- | --- | --- |
| N[C@H](CO)C(=O)O [D-serine] | showed inward currents | 12 ± 3 | inactivated | 5 ± 1 | 20 ± 3 | – | – | – | – | – | – | – | – | – | – | – | – | – | – | – |
| NCCCC(=O)O [GABA, γ-aminobutyric acid] | – | – | – | – | – | less than 1 μA | 5 ± 0.6 | 8.2 ± 1.1 | 6.0 ± 1.0 | 13 ± 3 | 0.42 ± 0.13 | 58 ± 8 | less than 1 μA | less than 1 μA | 86 ± 5 | less than 1 μA | the only ligand that elicited currents | – | – | – |
| NCC(=O)O [glycine] | showed inward currents | – | inactivated | – | – | – | – | – | 0.33 ± 0.01 | – | 0.08 ± 0.01 | – | – | – | – | – | – | 2000 ± 100 | 2000 ± 100 | conducted inward currents |
